Measured values taken from patent publication US11891601B2, “Method to enhance the transcription regulation of SUPT4H on genes containing repetitive nucleotide sequences” (National Yang-Ming University, priority 2018, dated 2024).

Test system: genes with lengthy repetitive nucleotide sequences (Q81-GFP, mutant HTT)
Test: RT-qPCR of (CAG)n-GFP / HTT mRNA with SUPT4H siRNA knockdown plus tropolone
Type: cell-based
Conditions: together with SUPT4H siRNA; only in the genes with lengthy repetitive nucleotide sequences
Method: ST14A, Hdh^Q7/Q7 and Hdh^Q111/Q111 were maintained in DMEM (HyClone) supplemented with 15% fetal bovine serum at 33° C. with 5% CO2. ST14A^tet is a genetic engineered stable line, which integrated pTet-Off construct in the genome of ST14A cells and could trigger the expression of pTRE2-(CAG)n-eGFP plasmid in the absence of tetracycline. Lipofectamine 2000 (Invitrogen) transfection reagent was used to deliver siRNA or together with pTRE2-(CAG)n-eGFP into cells. 100 nM of SUPT4H siRNA (DHARMACON, ON-TARGET plus SMART pool, L-048866-01) and (DHARMACON, J-086342-10, 5′-[…]-3′ (SEQ ID NO: 1) and 5′-[…]-(SEQ ID NO: 2)) were used to knock-down SUPT4H expression in mice and rat cells, respectively.
For mammalian cells, total RNA was isolated using TRIzol reagent as per manufacturer's instruction (Invitrogen). […] The amount of cDNAs were quantified by StepOnePlus Real-Time qPCR system (Applied Biosystems) and analyzed by the Quantitative-Comparative CT (AACT) program. Rat SUPT4H, eGFP, mouse SUPT4H, and Mouse HTT were measured using corresponding primer sets as indicated in TABLE 3. snRNA U6 was included as a loading control. […]
Please refer to FIG. 6. […] A relative high signal of R-loops was detected in (CAG)7-eGFP, but this signal is not increased by tropolone. […] RNA was extracted and analyzed by real-time RT-qPCR to measure the quantity of (CAG)n-GFP, SUPT4H and snRNA U6. […]

Structure (SMILES): O=c1cccccc1O [Tropolone]
- level of transcriptional reduction by SUPT4H siRNA knockdown upon tropolone treatment: further increased
